Reference: US12129312B2, “Peptide compound, application thereof and composition containing same” (priority 2017, dated 2024)
Read-outs that look alike come from different tables or passages of the source. Numbered stars: 1 amine (or outer) side, 2 acyl side, 3 side chain; on linkers, the order of the positions; unused ones are H or OH. Square brackets hold non-standard residues; d marks the D form. Peptide text beside a SMILES is read from it. dTyr(3-F) = N[C@H](Cc1ccc(O)c(F)c1)C(=O)O; Pro(4,4-F2) = O=C(O)[C@@H]1CC(F)(F)CN1; 1Nal = N[C@@H](Cc1cccc2ccccc12)C(=O)O; 2Nal = N[C@@H](Cc1ccc2ccccc2c1)C(=O)O; dNMeY = CN[C@H](Cc1ccc(O)cc1)C(=O)O; X3 = O=C(N1Cc2ccccc2CN1[*:1])[*:2]; NMehLeu = CN[C@@H](CCC(C)C)C(=O)O; NEtLeu = CCN[C@@H](CC(C)C)C(=O)O; NMeF = CN[C@@H](Cc1ccccc1)C(=O)O; Tic = O=C(O)[C@@H]1Cc2ccccc2CN1; Gly(N-CH2CH2OH) = O=C(O)CNCCO; NMeL = CN[C@@H](CC(C)C)C(=O)O; d(hSer) = N[C@H](CCO)C(=O)O; NMeS = CN[C@@H](CO)C(=O)O

Biological target: T1, human Chemokine like receptor 1 (Homo sapiens, UniProt Q99788)
T1 construct: host or cells: U2OS (Tango CMKLR1-bla U2OS)
T1 sequence (Q99788 1-373): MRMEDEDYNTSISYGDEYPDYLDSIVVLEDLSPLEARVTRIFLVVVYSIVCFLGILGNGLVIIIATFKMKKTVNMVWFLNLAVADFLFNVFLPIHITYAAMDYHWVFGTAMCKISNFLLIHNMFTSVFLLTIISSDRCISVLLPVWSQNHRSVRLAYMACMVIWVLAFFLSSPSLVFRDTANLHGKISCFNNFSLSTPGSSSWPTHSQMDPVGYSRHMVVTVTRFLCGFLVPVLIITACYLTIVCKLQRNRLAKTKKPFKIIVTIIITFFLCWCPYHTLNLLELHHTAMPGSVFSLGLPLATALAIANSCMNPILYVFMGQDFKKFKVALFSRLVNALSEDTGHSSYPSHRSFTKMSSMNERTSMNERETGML
Test: Activation of Tango CMKLR1-bla U2OS cells (beta-lactamase FRET reporter)
Format: cell-based
Method: The polypeptide sequences described above are the polypeptide sequences disclosed in the patent JP2010-229093A of BANYU PHARMA CO LTD: (D-Tyr)-Phe-Leu-Pro-(D-Ser)-Gln-Phe-(D-Ala)-Tic-Ser was used as a positive control (SEQ ID NO: 102).
The activation of the compound on Tango™ CMKLR1-bla U2OS cells (Invitrogen Cat. nos. K1551) was tested.
The activation of each compound in the above experiments on Tango™ CMKLR1-bla U2OS cells was determined as follows:
Day 1: Cell Seeding on Plate
2. The medium was removed, and the cells were washed with DPBS twice, followed by addition of 3 mL of 0.05% trypsin, and placed in a 37° C., 5% CO2 incubator (Thermo Fisher, Waltham, Massachusetts, USA) for 3-5 minutes. After the cells were rounded, 3-5 mL of medium (medium formula: DMEM 90%, Dialyzed FBS 10%, NEAA 0.1 mM, HEPES (pH 7.3) 25 mM, Penicillin 100 U/mL, Streptomycin 100 μg/mL) was added to terminate digestion.
2. The digested cells were transferred to a 15 mL centrifuge tube (430790, Corning), centrifuged at 1000 rpm for 5 minutes (5810R, Eppendorf, Hamburg, Germany), and the supernatant was discarded.
3. 7 mL of medium (DMEM+10% FBS) was added, blowed into a single cell suspension, counted by a cell counter, and adjusted the cell suspension to a desired cell density of 250,000/mL with the medium.
4. The cell suspension was seeded into a 384-well cell plate (Corning 3712) in 40 μL/well to make the number of cells 10000 cells/well, and 32 μL of medium was added to the blank control.
5. The incubation was performed overnight at 37° C. under 5% CO2.
Day 2: Dosing and Testing
1. Preparation of 200× Compound Plate
1.1 The test compound was formulated into a 10 mM working solution in DMSO.
1.2 45 μL of 10 mM test compound was added to the 2nd column of rows A to P in the Echo-384 well plate. The compound was subjected to a 3-fold dilution with Precision (30 μL of DMSO was added to the 3rd to 11th columns; 15 μL of the drug solution was pipetted from the 2nd column to the 3rd column, blown and evenly mixed; then 15 μL of the drug solution was pipetted from the 3rd column to the 4th column, blown and evenly mixed; the drugs was subjected to a 3-fold dilution to obtain 10 concentrations in total). The 1st and 12th columns of the Echo-384 well plate were supplemented with 30 μL of DMSO.
2. Preparation of Intermediate Plate
500 nL, i.e., 0.5 μL of the diluted compound (or DMSO) in the 200× compound plate was transferred into the corresponding position of V-bottom 384-well plate with Echo. 20 μL of medium was added to each well, centrifuged, shaken and evenly mixed. The concentration of the drugs in each well of the 2nd to 11th column of intermediate plate (i.e., 5× compound plate) were shown in following Table 4.
3.1 The cell plate was taken out from the incubator and observed under a microscope. The diluted compound or DMSO in the intermediate plate was added to the cell plate in 10 μL/well in the corresponding cell plate, and 40 μL of medium was pre-filled in each well.
3.2 The cells were incubated at 37° C. under 5% CO2 for 4 hours.
4.1 1 mM CCF4-AM, solution B, Solution C, and Solution D were used to prepare an appropriate amount of 6× detection solution. The LiveBLAzer™-FRET B/G Loading kit (K1095, Thermo Fisher, Waltham, Massachusetts, USA) kit containing CCF-4AM and solutionB, solutionC, and solutionD was also purchased from invitrogen (K1157, Thermo Fisher, Waltham, Massachusetts, USA).
4.2 The cells were observed under a microscope and the cell plate was equilibrated to room temperature.
4.3 6 μL of CCF-4AM dissolved solution A, 60 μL of solution B, 904 μL of solution C and 30 μL of solution D were pipetted in an EP tube, blown, and evenly mixed to obtain a 6× detection solution. The prepared 6× detection solution was pipetted to a 384-well plate in 10 μL/well.

[1] = determination by the method of Effect Embodiment 1, read-out: EC50

| SMILES | EC50 [1] [nM] | EC50 [nM] | EC50 (Tango CMKLR1-bla U2OS cells, 4 hours incubation, four-parameter fit of activation rate) |
| --- | --- | --- | --- |
| CCN(C(=O)[C@H](Cc1ccccc1)NC(=O)[C@H](N)Cc1ccc(O)cc1)[C@@H](CC(C)C)C(=O)N1CCC[C@H]1C(=O)N[C@H](CO)C(=O)N[C@@H](CCC(N)=O)C(=O)N[C@@H](Cc1ccccc1)C(=O)N[C@H](C)C(=O)N1Cc2ccccc2C[C@H]1C(=O)N[C@@H](CO)C(=O)O [YW-183, (D-Tyr)-Phe-(NEt-Leu)-Pro-(D-Ser)-Gln-Phe-(D-Ala)-Tic-Ser] (H-[dY]F[NEtLeu]P[dS]QF[dA][Tic]S-OH) | 9.2 | – | – |
| CC(C)C[C@@H](C(=O)N1CC(F)(F)C[C@H]1C(=O)N[C@H](CO)C(=O)N[C@@H](CCC(N)=O)C(=O)N[C@@H](Cc1ccc2ccccc2c1)C(=O)N[C@H](C)C(=O)N1Cc2ccccc2C[C@H]1C(=O)N(C)[C@@H](CO)C(=O)O)N(C)C(=O)[C@H](Cc1ccccc1)NC(=O)[C@H](N)Cc1ccc(O)c(F)c1 [YW-226, (D-Tyr(3F))-Phe-(NMe-Leu)-(DiFluorPro)-(D-Ser)-Gln-(Nal-2)-(D-Ala)-Tic-(NMe-Ser)] (H-[dTyr(3-F)]F[NMeL][Pro(4,4-F2)][dS]Q[2Nal][dA][Tic][NMeS]-OH) | 3.3 | – | – |
| CC(C)C[C@@H](C(=O)N1CCC[C@H]1C(=O)N[C@H](CO)C(=O)N[C@@H](CCC(N)=O)C(=O)N[C@@H](Cc1ccccc1)C(=O)N[C@H](C)C(=O)N1Cc2ccccc2C[C@H]1C(=O)N[C@@H](CO)C(=O)O)N(C)C(=O)[C@H](Cc1ccc2ccccc2c1)NC(=O)[C@H](N)Cc1ccc(O)cc1 [YW-200, (D-Tyr)-2Nal-(NMe-Leu)-Pro-(D-Ser)-Gln-Phe-(D-Ala)-Tic-Ser] (H-[dY][2Nal][NMeL]P[dS]QF[dA][Tic]S-OH) | – | 19 | – |
| CC(C)C[C@H](NC(=O)[C@H](Cc1ccccc1)NC(=O)[C@H](N)Cc1ccc(O)cc1)C(=O)N1CCC[C@H]1C(=O)N[C@H](CO)C(=O)N[C@@H](CCC(N)=O)C(=O)N[C@@H](Cc1ccccc1)C(=O)N[C@H](C)C(=O)N1Cc2ccccc2C[C@H]1C(=O)N(C)[C@@H](CO)C(=O)O [YW-110, (D-Tyr)-Phe-Leu-Pro-(D-Ser)-Gln-Phe-(D-Ala)-Tic-(NMe-Ser)-OH] (H-[dY]FLP[dS]QF[dA][Tic][NMeS]-OH) | 13 | – | – |
| CC(C)C[C@@H](C(=O)N1CCC[C@H]1C(=O)N[C@H](CO)C(=O)N[C@@H](CCC(N)=O)C(=O)N[C@@H](Cc1ccccc1)C(=O)N[C@H](C)C(=O)N1Cc2ccccc2C[C@H]1C(=O)N[C@@H](CO)C(=O)O)N(C)C(=O)[C@H](Cc1ccccc1)N(C)C(=O)[C@H](N)Cc1ccc(O)cc1 [YW-105, (D-Tyr)-(NMe-Phe)-(NMe-Leu)-Pro-(D-Ser)-Gln-Phe-(D-Ala)-Tic-Ser-OH] (H-[dY][NMeF][NMeL]P[dS]QF[dA][Tic]S-OH; N-terminus assumed) | 10.6 | – | – |
| CC(C)C[C@@H](C(=O)N1CCC[C@H]1C(=O)N[C@H](CO)C(=O)N[C@@H](CCC(N)=O)C(=O)N[C@@H](Cc1ccccc1)C(=O)N[C@H](C)C(=O)N1Cc2ccccc2C[C@H]1C(=O)N(CCO)CC(=O)O)N(C)C(=O)[C@H](Cc1ccccc1)NC(=O)[C@H](N)Cc1ccc(O)cc1 [YW-172, (D-Tyr)-Phe-(NMe-Leu)-Pro-(D-Ser)-Gln-Phe-(D-Ala)-Tic-NHoSer-OH] (H-[dY]F[NMeL]P[dS]QF[dA][Tic][Gly(N-CH2CH2OH)]-OH) | 5.8 | – | – |
| CC(C)C[C@H](NC(=O)[C@H](Cc1ccccc1)NC(=O)[C@H](N)Cc1ccc(O)cc1)C(=O)N1CCC[C@H]1C(=O)N[C@H](CO)C(=O)N[C@@H](CCC(N)=O)C(=O)N[C@@H](Cc1ccc2ccccc2c1)C(=O)N[C@H](C)C(=O)N1Cc2ccccc2C[C@H]1C(=O)N[C@@H](CO)C(=O)O [YW-118, (D-Tyr)-Phe-Leu-Pro-(D-Ser)-Gln-2Nal-(D-Ala)-Tic-Ser-OH] (H-[dY]FLP[dS]Q[2Nal][dA][Tic]S-OH) | – | 6.9 | – |
| CN[C@H](Cc1ccc(O)cc1)C(=O)N[C@@H](Cc1ccccc1)C(=O)N[C@@H](CC(C)C)C(=O)N1CCC[C@H]1C(=O)N[C@H](CO)C(=O)N[C@@H](CCC(N)=O)C(=O)N[C@@H](Cc1ccccc1)C(=O)N[C@H](C)C(=O)N1Cc2ccccc2C[C@H]1C(=O)N[C@@H](CO)C(=O)O [YW-103, (D-NMe-Tyr)-Phe-Leu-Pro-(D-Ser)-Gln-Phe-(D-Ala)-Tic-Ser-OH] (H-[dNMeY]FLP[dS]QF[dA][Tic]S-OH; N-terminus assumed) | 9.4 | – | – |
| CC(C)C[C@@H](C(=O)N1CCC[C@H]1C(=O)N[C@H](CCO)C(=O)N[C@@H](CCC(N)=O)C(=O)N[C@@H](Cc1ccccc1)C(=O)N[C@H](C)C(=O)N1Cc2ccccc2C[C@H]1C(=O)N[C@@H](CO)C(=O)O)N(C)C(=O)[C@H](Cc1ccccc1)NC(=O)[C@H](N)Cc1ccc(O)cc1 [YW-175, (D-Tyr)-Phe-(NMe-Leu)-Pro-(D-HoSer)-Gln-Phe-(D-Ala)-Tic-Ser-OH] (H-[dY]F[NMeL]P[d(hSer)]QF[dA][Tic]S-OH; N-terminus assumed) | 91 | – | – |
| CC(C)C[C@H](NC(=O)[C@H](Cc1ccccc1)NC(=O)[C@H](N)Cc1ccc(O)cc1)C(=O)N1CCC[C@H]1C(=O)N[C@H](CO)C(=O)N[C@@H](CCC(N)=O)C(=O)N[C@@H](Cc1cccc2ccccc12)C(=O)N[C@H](C)C(=O)N1Cc2ccccc2C[C@H]1C(=O)N[C@@H](CO)C(=O)O [YW-117, (D-Tyr)-Phe-Leu-Pro-(D-Ser)-Gln-1Nal-(D-Ala)-Tic-Ser-OH] (H-[dY]FLP[dS]Q[1Nal][dA][Tic]S-OH) | – | 3.9 | – |
| CC(C)C[C@H](NC(=O)[C@H](Cc1ccccc1)NC(=O)[C@H](N)Cc1ccc(O)cc1)C(=O)N1CCC[C@H]1C(=O)N[C@H](CO)C(=O)N[C@@H](CCC(N)=O)C(=O)N[C@H](CO)C(=O)N[C@H](C)C(=O)N1Cc2ccccc2CN1C(=O)N[C@@H](CO)C(=O)O [YW-147, (D-Tyr)-Phe-Leu-Pro-(D-Ser)-Gln-(D-Ser)-(D-Ala)-azaTic-Ser-OH] (H-[dY]FLP[dS]Q[dS][dA][X3]S-OH; N-terminus assumed) | > 50000 | – | no fit |
| CC(C)CC[C@@H](C(=O)N1CCC[C@H]1C(=O)N[C@H](CO)C(=O)N[C@@H](CCC(N)=O)C(=O)N[C@@H](Cc1ccccc1)C(=O)N[C@H](C)C(=O)N1Cc2ccccc2C[C@H]1C(=O)N[C@@H](CO)C(=O)O)N(C)C(=O)[C@H](Cc1ccccc1)NC(=O)[C@H](N)Cc1ccc(O)cc1 [YW-101, (D-Tyr)-Phe-(NMe-HoLeu)-Pro-(D-Ser)-Gln-Phe-(D-Ala)-Tic-Ser-OH] (H-[dY]F[NMehLeu]P[dS]QF[dA][Tic]S-OH) | – | 2.9 | – |
| CC(C)C[C@H](NC(=O)[C@H](Cc1ccccc1)NC(=O)[C@H](N)Cc1ccccc1)C(=O)N1CCC[C@H]1C(=O)N[C@H](CO)C(=O)N[C@@H](CCC(N)=O)C(=O)N[C@@H](Cc1ccccc1)C(=O)N[C@H](C)C(=O)N1Cc2ccccc2C[C@H]1C(=O)N[C@@H](CO)C(=O)O [YW-97, (D-Phe)-Phe-Leu-Pro-(D-Ser)-Gln-Phe-(D-Ala)-Tic-Ser-OH] (H-[dF]FLP[dS]QF[dA][Tic]S-OH) | 50 | – | – |
